Results published in paper PMC10854695, “Using Flavonoid Substitution Status to Predict Anticancer Effects in Human Melanoma Cancers: An In Vitro Study” (Cancers, 2024).
Read-outs that look alike come from different tables or passages of the source.

How the values were obtained:
[1] = tested on: cleaved caspase-3 and cleaved caspase-7 in A375 cells; assay: Immunofluorescence of cleaved caspase-3/-7, A375; format: cell-based, human; settings: A375, 48 h, immunofluorescent staining
Description: Firstly, to examine fluorescent signals, cells were placed in the bottom of 96-well black plates at 1 × 10^4 cells per well and permitted to adhere for 24 h. […] After incubating and removing the medium, cells were fixed in 4% paraformaldehyde for 15 min. Later, cells were rinsed three times with PBS and permeabilized with 0.1% Triton X-100 for 5 min at room temperature. The 10% heat-inactivated goat serum in the PBS was used to block non-specific binding. Subsequently, cells were treated with the following antibodies overnight: anti-cleaved caspase 3 and anti-cleaved caspase-7. […] Cell nuclei were stained with Hoechst 33342 and F-actin was stained with Phalloidin-Atto 488. Fluorescent signals were captured using a BD Pathway 855 confocal microscope (Becton Dickinson, Franklin Lakes, NJ, USA). The mean fluorescence intensity was calculated using ImageJ software (National Institutes of Health, Bethesda, Rockville, MD, USA).

A375 melanoma cells [2] = assay: [3H]-thymidine incorporation (DNA biosynthesis), A375; format: cell-based, human; settings: read-out: IC50, effect on DNA biosynthesis ([3H]-thymidine incorporation)
Description: (§1) The inhibition of DNA biosynthesis was evaluated using [^3H]-thymidine incorporation into the DNA of melanoma cells (C32, A375) and fibroblasts treated with the studied compounds [21]. The cells were briefly seeded in 24-well plates (1 × 10^5 cells per well) and allowed to adhere for 24 h. […] After incubation for 24, 48, and 72 h, the cells were rinsed three times with PBS. Then, cells were lysed in 1 mL of 0.1 M NaOH containing 1% SDS. The cell lysate was moved into scintillation vials containing scintillation liquid, and the radioactivity of the samples was measured using a liquid scintillation analyzer (Perkin-Elmer, Waltham, MA, USA).

[3] = MTT cell viability assay, normal cells; settings: human, human skin fibroblasts (CCD25Sk);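 also: fibroblasts served as non-cancer comparison line for selectivity versus melanoma cells, MTT reduction read as absorbance at 570 nm after 2 h dye exposure, compounds in ≤0.1% DMSO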
C32 melanoma cells [4] = assay: [3H]-thymidine incorporation (DNA biosynthesis), C32; format: cell-based, human; settings: read-out: IC50, effect on DNA biosynthesis ([3H]-thymidine incorporation)
Description: as §1

[5] = tested on: cleaved caspase-3 and cleaved caspase-7 in C32 cells; assay: Immunofluorescence of cleaved caspase-3/-7, C32; format: cell-based, human; settings: C32, 48 h, immunofluorescent staining
A375 melanoma cells [6] = assay: Neutral red uptake (NRU) assay, A375; settings: Homo sapiens, read-out: IC50, cytotoxic activity, NRU assay
A375 melanoma cells [7] = assay: MTT cell viability assay, A375;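 also: Read-out is formazan absorbance at 570 nm after 2 h with MTT, with compounds in at most 0.1% v/v DMSO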
[8] = tested on: caspases, PARP, phospho-RSK in A375 cells; assay: Western immunoblot of apoptosis mediators and RSK, A375; format: cell-based, human; settings: A375, 48 h, Western blot
Description: (§2) Floating cells were harvested by centrifugation of the conditioned media (300× g, 5 min). Cell pellet and adherent cells were lysed in a cell lysis buffer supplemented with inhibitors of proteases and phosphatases. The cell lysate was sonicated (2 × 10 s) on ice with an ultrasonic homogenizer (UP200S, Hielscher Ultrasonics GmbH, Teltow, Germany) and centrifuged for 10 min at 10,000× g. The supernatant was collected and stored in a freezer at −70 °C. Protein concentrations in the cell supernatants were determined using a Lowry assay. Obtained proteins were dissolved on SDS-PAGE gels (7.5%, 10%, or 12%) using the Mini-Protean Tetra system. The proteins were transferred to nitrocellulose membranes using the Mini Trans-Blot Cell wet blotting system. The 5% skim milk was used to block membranes. Then, membranes were probed for 24 h at 4 °C with the following antibodies: anti-phospho-RSK, anti-RSK, anti-PARP, anti-cleaved PARP, anti-caspase-8, anti-caspase-9, anti-caspase-7, anti-caspase-3, and anti-actin. Membranes were incubated with an ECL-HRP (enhanced chemiluminescence-horseradish peroxidase) substrate, and the signal was spotted using the BioSpectrum Imaging System and VisionWorks LS software 7.0 (Ultra-Violet Products, Ltd., San Gabriel, CA, USA). The intensity of the bands was quantified by densitometric analysis using UVIBand software, version 15.08d (Uvitec Ltd., Cambridge, UK).

[9] = Neutral red uptake (NRU) assay, normal cells; settings: human, human skin fibroblasts (CCD25Sk)
Description: (§3) The NRU (neutral red uptake) was conducted as previously described by Szoka and co-workers, with some modifications [22]. Briefly, melanoma cells and fibroblasts were seeded in microplates at the density of 1 × 10^4 cells per well and allowed to adhere for 24 h. […] After treatment, the culture medium was replaced with a neutral red solution (40 µg/mL). An additional 2 h of incubation was performed. The neutral red solution was then removed and the neutral red accumulated in the cells was dissolved in 50% EtOH with 1% of the glacial acetic acid. The absorbance was estimated at 540 nm and IC50 values were calculated using GraphPad Prism software (GraphPad Software, San Diego, CA, USA).

[10] = tested on: caspases, PARP, phospho-RSK in C32 cells; assay: Western immunoblot of apoptosis mediators and RSK, C32; format: cell-based, human; settings: C32, 48 h, Western blot
Description: as §2

A375 melanoma cells [11] = assay: Apoptosis assay, annexin V/PI flow cytometry, A375; format: cell-based, human; settings: 48 h
Description: (§4) Firstly, cells were placed in 6-well plates at a density of 1 × 10^5 cells per well and allowed to adhere for 24 h. Then, cells were treated with 25 µM, 50 µM, and 100 μM of the selected flavonoids (1, 6, 15, 16, 17, 37) and incubated for 48 h. Floating and adherent cells were collected and assayed using the manufacturer’s protocol supported by the Dead Cell Apoptosis Kit for flow cytometry. Concisely, 100 μL of an annexin-binding buffer containing a 5 μL annexin V-FITC conjugate solution and 1 μg/mL PI (propidium iodide) was used to disperse the cells. After 15 min of incubation, an additional 400 μL of the mentioned buffer was added. The cells were analyzed with a DxFLEX flow cytometer (Beckman Coulter, Brea, CA, USA).

[12] = tested on: human skin fibroblasts (CCD25Sk); assay: [3H]-thymidine incorporation (DNA biosynthesis), normal cells; format: cell-based; settings: Homo sapiens, Skin fibroblast, read-out: IC50, effect on DNA biosynthesis ([3H]-thymidine incorporation)
Description: as §1

C32 melanoma cells [13] = assay: MTT cell viability assay, C32; settings: Homo sapiens, read-out: IC50, cytotoxic activity, MTT test;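 also: MTT added for 2 h, cells lysed in DMSO, absorbance read at 570 nm, compound vehicle kept at or below 0.1% DMSO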
Description: The MTT colorimetric assay was performed as a preliminary evaluation of the cytotoxicity of the selected flavonoids according to the method described and validated by Strawa et al. [21]. Briefly, melanoma cells and fibroblasts were seeded in 96-well microplates at a density of 1 × 10^4 cells per well. Fibroblasts were used as a control cell line in order to assess the selectivity of the compounds. […] Subsequently, the cells were washed with PBS, incubated with MTT solution for 2 h, and lysed with dimethyl sulfoxide (DMSO) supplemented with 1% (v/v) Sorensen’s glycine buffer. The absorbance was measured using a microplate reader (EPOCH 2, BioTek, Winooski, VT, USA) at a wavelength of 570 nm. The compounds were used at a final DMSO concentration of no more than 0.1% (v/v) in each well. The results were generated from at least three independent experiments. […] The IC50 values were calculated with GraphPad Prism 9 software (GraphPad Software, San Diego, CA, USA).

C32 melanoma cells [14] = assay: Neutral red uptake (NRU) assay, C32; settings: Homo sapiens
Description: as §3

A375 cells [15] = tested on: A375 cells; parameters: method as in PMID 28260058; settings: 40 µM; cited from earlier work
in vitro = settings: human
C32 melanoma cells [16] = assay: Apoptosis assay, annexin V/PI flow cytometry, C32; format: cell-based, human; settings: C32, 25 µM, 48 h
Description: as §4

A375 cells [17] = tested on: A375 cells; parameters: method as in PMID 26911838; settings: 10 and 20 μM, dose-dependent; cited from earlier work
[18] = tested on: SK-MEL-2 malignant melanoma cell line; parameters: method as in PMID 36991237; settings: read-out: IC50, inhibition of viability, MTS test; cited from earlier work
[19] = tested on: G-361 malignant melanoma cell line; parameters: method as in PMID 36991237; settings: read-out: IC50, inhibition of viability, MTS test; cited from earlier work
[20] = Homo sapiens, A-375, A375, 24 h
[21] = Homo sapiens, A-375, A375, 48 h
[22] = Homo sapiens, A-375, A375, 72 h
[23] = Homo sapiens, A-375, 24 h, read-out: IC50, cytotoxic activity, MTT test, A375, 24 h
[24] = Homo sapiens, A-375, 48 h, read-out: IC50, cytotoxic activity, MTT test, A375, 48 h
[25] = Homo sapiens, A-375, 72 h, read-out: IC50, cytotoxic activity, MTT test, A375, 72 h
[26] = C32, 24 h, read-out: IC50, cytotoxic activity, NRU assay, C32, 24 h
[27] = C32, 48 h, read-out: IC50, cytotoxic activity, NRU assay, C32, 48 h
[28] = C32, 72 h, read-out: IC50, cytotoxic activity, NRU assay, C32, 72 h

| SMILES | IC50 (A375 melanoma cells [2]; A375, 48 h) | IC50 (A375 melanoma cells [2]; [20]) | IC50 (A375 melanoma cells [2]; [21]) | IC50 (A375 melanoma cells [2]; [22]) | IC50 (C32 melanoma cells [4]; Homo sapiens, C32, C32, 24 h) | IC50 (C32 melanoma cells [4]; Homo sapiens, C32, C32, 48 h) | IC50 (C32 melanoma cells [4]; Homo sapiens, C32, C32, 72 h) | IC50 (A375 melanoma cells [6]; A-375, 24 h) | IC50 (A375 melanoma cells [6]; A-375, 48 h) | IC50 (A375 melanoma cells [6]; A-375, 72 h) | IC50 (A375 melanoma cells [7]; [23]) | IC50 (A375 melanoma cells [7]; [24]) | IC50 (A375 melanoma cells [7]; [25]) | IC50 at 24 h [9] | IC50 at 48 h [9] | IC50 at 72 h [9] | IC50 ([12]; 24 h) | IC50 ([12]; 48 h) | IC50 ([12]; 72 h) | IC50 (C32 melanoma cells [13]; C32, 24 h) | further results |
| --- | --- | --- | --- | --- | --- | --- | --- | --- | --- | --- | --- | --- | --- | --- | --- | --- | --- | --- | --- | --- | --- |
| O=c1cc(-c2ccc(O)c(O)c2)oc2cc(O)cc(O)c12 [Compound 6, luteolin] | 38.5 ± 2.9 µM | > 200 µM | 38.6 ± 0.91 µM | 30.9 ± 1.8 µM | > 200 µM | 30.9 ± 2.2 µM | 24.5 ± 1.81 µM | 58.1 ± 4.2 µM | 25.7 µM | 23.9 ± 0.23 µM | > 200 µM | 38.2 µM | 24.6 ± 1.6 µM | > 200 µM | 45.2 ± 2.6 µM | 21.4 ± 1.7 µM | > 200 µM | > 200 µM | > 200 µM | > 200 µM | level of cleaved caspase-3 [1]: slightly increased; IC50 at 24 h [3]: > 200 µM; IC50 at 48 h [3]: 69.7 ± 5.2 µM; IC50 at 72 h [3]: 20.1 ± 1.4 µM; caspase-3 expression [5]: notably extended; level of the cleaved caspase-7 [5]: slightly increased; IC50 (A375 melanoma cells [7]; read-out: IC50, cytotoxic activity, MTT test, A375, 48 h): 38.2 ± 4.1 µM; cleavage of initiator caspases, caspase-9 and caspase-8 [8]: cleavage of both initiator caspases; levels of the caspases-3 and -7 zymogens [8]: decreased levels; cleaved PARP and caspase-9 [10]: generated cleaved PARP and caspase-9; level of early apoptotic cells (A375 melanoma cells [11]; A375, 25 µM): 63.6 ± 6.1%; level of late apoptotic cells (A375 melanoma cells [11]; A375, 25 µM): 13.0 ± 1.8%; IC50 (C32 melanoma cells [13]; C32, 48 h): 42.1 ± 3.5 µM; IC50 (C32 melanoma cells [13]; C32, 72 h): 13.1 ± 1.3 µM; IC50 (C32 melanoma cells [14]; [26]): 41.3 ± 3.8 µM; IC50 (C32 melanoma cells [14]; [27]): 13.1 µM; IC50 (C32 melanoma cells [14]; [28]): 12.6 ± 1.2 µM |
| O=c1cc(-c2ccc(O)cc2)oc2cc(O)cc(O)c12 [Compound 1, apigenin] | 28.6 ± 1.8 µM | 87.7 ± 4.2 µM | 28.6 ± 0.84 µM | 23.4 ± 1.6 µM | > 200 µM | 27.1 ± 0.49 µM | 22.5 ± 1.2 µM | 64.5 ± 4.3 µM | 24.7 ± 2.4 µM | 21.2 ± 1.4 µM | > 200 µM | 31.9 ± 3 µM | 20.7 ± 1.5 µM | > 200 µM | 87.8 ± 5.8 µM | 58 ± 3.2 µM | 188 ± 8.1 µM | 189 ± 9.5 µM | > 200 µM | > 200 µM | level of cleaved caspase-3 [1]: slightly increased; A375 cell viability, MTT assay (A375 cells [15]): decreased A375 cell viability; IC50 (C32 melanoma cells [4]; C32, 48 h): 27 ± 1.4 µM; IC50 at 24 h (in vitro): > 200 µM; IC50 at 48 h (in vitro): > 200 µM; IC50 at 72 h (in vitro): 100 to 200 µM; caspase-3 expression [5]: notably extended; cleavage of initiator caspases, caspase-9 and caspase-8 [8]: cleavage of both initiator caspases; levels of the caspases-3 and -7 zymogens [8]: decreased levels; cleaved PARP and caspase-9 [10]: generated cleaved PARP and caspase-9; level of early apoptotic cells (A375 melanoma cells [11]; A375, 50 µM): 34.2 ± 2.8%; level of late apoptotic cells (A375 melanoma cells [11]; A375, 50 µM): 7.1 ± 1.6%; IC50 (C32 melanoma cells [13]; C32, 48 h): 63.1 ± 4.7 µM; IC50 (C32 melanoma cells [13]; C32, 72 h): 31.8 ± 2.5 µM; percentage of early apoptotic cells (C32 melanoma cells [16]): 13.3 ± 2.4%; percentage of late apoptotic cells (C32 melanoma cells [16]): 29.4 ± 3.3%; IC50 (C32 melanoma cells [14]; [26]): 100 to 200 µM; IC50 (C32 melanoma cells [14]; [27]): 25.7 ± 1.6 µM; IC50 (C32 melanoma cells [14]; [28]): 22.4 ± 1.5 µM; A375 cell motility and invasion (A375 cells [17]): significantly inhibited |
| O=c1cc(-c2ccccc2)oc2c(O)c(O)ccc12 [Compound 16, 7,8-dihydroxyflavone] | 29.7 ± 1.6 µM | 62.1 ± 3.9 µM | 29.7 ± 0.62 µM | 20.5 ± 2.2 µM | 38.1 ± 1.5 µM | 18.4 ± 0.42 µM | 12.8 ± 0.9 µM | 100 to 200 µM | 36 ± 3.5 µM | 27.4 ± 2.4 µM | 100 to 200 µM | 33.2 ± 3.2 µM | 20.5 ± 2.2 µM | > 200 µM | 100 to 200 µM | 72.9 ± 5.6 µM | 81.6 ± 5.8 µM | 64.6 ± 2.8 µM | 37 ± 2.5 µM | 100 to 200 µM | IC50 [18]: 200 to 250 µM; IC50 at 24 h [3]: > 200 µM; IC50 at 48 h [3]: 100 to 200 µM; IC50 at 72 h [3]: 93.3 ± 8 µM; IC50 (C32 melanoma cells [4]; C32, 48 h): 18.4 ± 1.4 µM; IC50 [19]: 200 to 250 µM; level of the cleaved caspase-7 [5]: slightly increased; cleavage of caspase-9 [8]: weak cleavage; expression of cleaved caspase-8 [8]: increased; phosphorylation of the RSK protein [8]: impaired; level of early apoptotic cells (A375 melanoma cells [11]; A375, 25 µM): 49.1 ± 3.9%; level of late apoptotic cells (A375 melanoma cells [11]; A375, 25 µM): 6.4 ± 1.5%; IC50 (C32 melanoma cells [13]; C32, 48 h): 39.2 ± 2.6 µM; IC50 (C32 melanoma cells [13]; C32, 72 h): 26.2 ± 2.8 µM; IC50 (C32 melanoma cells [14]; [26]): > 200 µM; IC50 (C32 melanoma cells [14]; [27]): 19.9 ± 1.2 µM; IC50 (C32 melanoma cells [14]; [28]): 16.5 ± 2.1 µM |
